Here are results for 3 molecules from paper PMC3775947 (Clinical lymphoma, myeloma & leukemia, 2013).

The conditions of data set [1]: human, in vivo.
The subject of the next data set is patients with AML. The note with it: cited from earlier work; for Rates of response: LDAC or decitabine alone.
A short description of data set [2]: Plasma pharmacokinetics of barasertib, barasertib-hQPA and LDAC. The note with it: for AUC0–EOI, barasertib-hQPA / AUC0–t, barasertib-hQPA / Css, barasertib-hQPA: geometric mean (CV%).
Where [3] appears, read: plasma, barasertib 800 mg + LDAC 400 mg, n=6.
Setting [4] is: plasma, barasertib 1000 mg + LDAC 400 mg, n=13.
Where [5] appears, read: plasma, barasertib 1200 mg + LDAC 400 mg, n=3.

Molecules are shown by their SMILES. Read-outs that look alike come from different tables or passages of the source.

Regarding `Nc1ccn([C@@H]2O[C@H](CO)[C@@H](O)[C@@H]2O)c(=O)n1` [LDAC, cytosine arabinoside], the “AUC0–8 ratio, Day 7:Day10, LDAC” value is 1.1 (14.6) ng.h/mL in data set [1] (800 mg), 1.2 (24.2) ng.h/mL in data set [1] (1000 mg) and 0.79 (105.7) ng.h/mL in data set [1] (1200 mg). In addition, in data set [1] (sc, 20 mg), the “Time of peak plasma concentrations (Cmax) post administration” value lay within 0.25 to 1 h. In data set [1] (sc, 20 mg), the “t½, monophasic elimination” value is 1 to 2 h. Also, the Infection frequency with patients with AML (LDAC monotherapy) is reported as 45%. The Rates of response with patients with AML is recorded as around 20%.
As for `CCN(CCO)CCCOc1ccc2c(Nc3cc(CC(=O)Nc4cccc(F)c4)[nH]n3)ncnc2c1` [Barasertib-hQPA, barasertib hydroxy-QPA], in data set [2] (7-day continuous iv infusion of barasertib, Day 1, maintained until EOI), the “Steady-state plasma concentrations observed from, after start of infusion” value was 24 h. The Accumulation result in data set [2] (28-day cycles) is given as “Minimal accumulation”. The “Barasertib-hQPA exposure (AUC and Css) versus barasertib dose” value in data set [2] (800-1200 mg, trend, low patient numbers) was “increase more than proportionally”. In addition, the “Clearance rate, geometric mean” value in data set [2] (barasertib 1000 mg cohort, range 23.4–43.3) came to 30.5 L/h. The “Volume of distribution at steady state, geometric mean” value in data set [2] (barasertib 1000 mg cohort, range 509–1050) was 713 L. In addition, the “Exposure to barasertib-hQPA during the infusion relative to that of barasertib” value in data set [2] (during 7-day infusion) is “approximately four-fold”. The “Terminal phase t½” value in data set [2] (following EOI, biphasic elimination) fell in the range of 84 to 108 h. Besides, the “Detected in samples post EOI up to and including” value in data set [2] (plasma, LLOQ 0.25 ng/mL) is at most 336 h. In addition, in data set [2] (setting [3]), the “AUC0–EOI, barasertib-hQPA” value is listed as 23240 (14.9) ng.h/mL; the “AUC0–t, barasertib-hQPA” value was 24040 (3.4) ng.h/mL; the “Css, barasertib-hQPA” value is reported as 147.3 (13.9) ng/mL. Further, in data set [2] (setting [4]), the “AUC0–EOI, barasertib-hQPA” value is 26860 (29.8) ng.h/mL; the “AUC0–t, barasertib-hQPA” value is listed as 32840 (23.1) ng.h/mL; the “Css, barasertib-hQPA” value is 170.2 (27.4) ng/mL. Moreover, in data set [2] (setting [5]), the “AUC0–EOI, barasertib-hQPA” value was 37510 (26.6) ng.h/mL; the “AUC0–t, barasertib-hQPA” value was 41850 (28.2) ng.h/mL; the “Css, barasertib-hQPA” value was 249.2 (21.0) ng/mL.
Regarding `Nc1ncn([C@H]2C[C@H](O)[C@@H](CO)O2)c(=O)n1` [decitabine], the Rates of response in the data set on patients with AML is given as around 20%.
